# Assay results from US10208003B2, “Synthesis of amine substituted 4,5,6,7-tetrahydrobenzothiazole compounds” (KNOPP BIOSCIENCES LLC, priority 2011, dated 2019).
structure (smiles),measurement,value
"CCCN[C@@H]1CCc2nc(N)sc2C1.Cl.Cl [Form B, (R)-(+)-2-amino-4,5,6,7-tetrahydro-6-(n-propylamino)benzothiazole dihydrochloride]",polymorphic form conversion under exposure to humidity and/or moisture,converts to Form A
